Data as given in publication PMC8037182, “Solvothermal Synthesis of Multiple Dihydropyrimidinones at a Time as Inhibitors of Eg5” (Molecules, 2021).

Assays:
Hela cell line = experiment: Cytotoxicity MTS assay, Hela cell line; assay type: cell-based; details: for OD490 value, Mean / OD490 value, Well 1 / OD490 value, Well 2 / OD490 value, Well 3: Hela cell line, MTS
Method: (§1) The positive compounds (IC50 < 100 μM) obtained from the primary Eg5 motor protein ATPase assay were tested for antiproliferative activity in vitro against Caco-2 cell line, Hela cell line, L929 cell line and T24 cell line by performing MTS assay. Cells were introduced into 96-well plates at a density of 1000 cells per well. After 24 h incubation, the cells were exposed with compounds at final concentrations ranging from 0.5 to 100 µM for 24 h. DMSO was used at a final concentration of 0.025% as blank control, monastrol was used as the positive control. Then 20 µL (CellTiter 96® AQueous One Solution Promega, Madison, WI, USA) reagent was added in each well. After 2 h at 37 °C in a 80% humidified, 5% CO2 atmosphere, the absorbance at 490 nm was recorded using a microplate reader (BIO-RAD iMark^TM). The results were obtained in three independent duplicate experiments. The primary data were shown in Supplementary Materials Tables S4–S7. The IC50 values for these compounds were calculated from a non-linear regression graph plotted between the percentage of cell viability and concentration with SPSS17.0 software.

L929 cell line = experiment: Cytotoxicity MTS assay, L929 cell line; assay type: cell-based; details: for OD490 values, Mean / OD490 values, Well 1 / OD490 values, Well 2 / OD490 values, Well 3: L929 cell line
Method: as §1

## CCOC(=O)c1c(C2NC(=O)NC(C)=C2C(=O)Nc2ccccc2OC)[nH]c(C(=O)OC)c1C (centres unmarked) [D1]
Hela cell line; 0.5μM, first assay
  OD490 value, Mean: 2.5955
  OD490 value, Well 1: 2.6286
  OD490 value, Well 2: 2.5425
  OD490 value, Well 3: 2.6155
Hela cell line; 0.5μM, second assay
  OD490 value, Mean: 2.5919
  OD490 value, Well 1: 2.6314
  OD490 value, Well 2: 2.6010
  OD490 value, Well 3: 2.5433
Hela cell line; 0.5μM, third assay
  OD490 value, Mean: 2.5096
  OD490 value, Well 1: 2.7036
  OD490 value, Well 2: 2.5565
  OD490 value, Well 3: 2.2688
Hela cell line; 1μM, first assay
  OD490 value, Mean: 2.6416
  OD490 value, Well 1: 2.6885
  OD490 value, Well 2: 2.5442
  OD490 value, Well 3: 2.6922
Hela cell line; 1μM, second assay
  OD490 value, Mean: 2.5793
  OD490 value, Well 1: 2.5367
  OD490 value, Well 2: 2.4698
  OD490 value, Well 3: 2.7314
Hela cell line; 1μM, third assay
  OD490 value, Mean: 2.7183
  OD490 value, Well 1: 2.6969
  OD490 value, Well 2: 2.7546
  OD490 value, Well 3: 2.7033
Hela cell line; 10μM, first assay
  OD490 value, Mean: 2.4106
  OD490 value, Well 1: 2.3442
  OD490 value, Well 2: 2.5603
  OD490 value, Well 3: 2.3272
Hela cell line; 10μM, second assay
  OD490 value, Mean: 2.3296
  OD490 value, Well 1: 2.6351
  OD490 value, Well 2: 2.1367
  OD490 value, Well 3: 2.2169
Hela cell line; 10μM, third assay
  OD490 value, Mean: 2.4826
  OD490 value, Well 1: 2.5635
  OD490 value, Well 2: 2.3145
  OD490 value, Well 3: 2.5698
Hela cell line; 25μM, first assay
  OD490 value, Mean: 2.1398
  OD490 value, Well 1: 2.1204
  OD490 value, Well 2: 2.2546
  OD490 value, Well 3: 2.0445
Hela cell line; 25μM, second assay
  OD490 value, Mean: 2.1914
  OD490 value, Well 1: 2.2361
  OD490 value, Well 2: 2.1235
  OD490 value, Well 3: 2.2145
Hela cell line; 25μM, third assay
  OD490 value, Mean: 2.1507
  OD490 value, Well 1: 2.2233
  OD490 value, Well 2: 2.2142
  OD490 value, Well 3: 2.0145
Hela cell line; 50μM, first assay
  OD490 value, Mean: 2.0448
  OD490 value, Well 1: 2.0719
  OD490 value, Well 2: 2.1034
  OD490 value, Well 3: 1.9590
Hela cell line; 50μM, second assay
  OD490 value, Mean: 2.0574
  OD490 value, Well 1: 1.9987
  OD490 value, Well 2: 2.1136
  OD490 value, Well 3: 2.0599
Hela cell line; 50μM, third assay
  OD490 value, Mean: 2.0424
  OD490 value, Well 1: 2.0136
  OD490 value, Well 2: 1.9658
  OD490 value, Well 3: 2.1478
Hela cell line; 100μM, first assay
  OD490 value, Mean: 1.9714
  OD490 value, Well 1: 1.9106
  OD490 value, Well 2: 1.9576
  OD490 value, Well 3: 2.0459
Hela cell line; 100μM, second assay
  OD490 value, Mean: 1.9690
  OD490 value, Well 1: 2.0360
  OD490 value, Well 2: 1.8490
  OD490 value, Well 3: 2.0220
Hela cell line; 100μM, third assay
  OD490 value, Mean: 1.9075
  OD490 value, Well 1: 2.0141
  OD490 value, Well 2: 1.8426
  OD490 value, Well 3: 1.8657
Hela cell line; MTS assay, 24 h exposure
  IC50: 128 µM
L929 cell line; 0.5μM, first assay
  OD490 values, Mean: 1.3706
  OD490 values, Well 1: 1.4101
  OD490 values, Well 2: 1.3370
  OD490 values, Well 3: 1.3648
L929 cell line; 0.5μM, second assay
  OD490 values, Mean: 1.7900
  OD490 values, Well 1: 1.7354
  OD490 values, Well 2: 1.9532
  OD490 values, Well 3: 1.6814
L929 cell line; 0.5μM, third assay
  OD490 values, Mean: 1.6902
  OD490 values, Well 1: 1.6425
  OD490 values, Well 2: 1.7433
  OD490 values, Well 3: 1.6847
L929 cell line; 1μM, first assay
  OD490 values, Mean: 1.3549
  OD490 values, Well 1: 1.3334
  OD490 values, Well 2: 1.3850
  OD490 values, Well 3: 1.3462
L929 cell line; 1μM, second assay
  OD490 values, Mean: 1.7547
  OD490 values, Well 1: 1.7965
  OD490 values, Well 2: 1.7320
  OD490 values, Well 3: 1.7355
L929 cell line; 1μM, third assay
  OD490 values, Mean: 1.7249
  OD490 values, Well 1: 1.7365
  OD490 values, Well 2: 1.7452
  OD490 values, Well 3: 1.6930
L929 cell line; 10μM, first assay
  OD490 values, Mean: 1.3153
  OD490 values, Well 1: 1.3870
  OD490 values, Well 2: 1.3090
  OD490 values, Well 3: 1.2498
L929 cell line; 10μM, second assay
  OD490 values, Mean: 1.7648
  OD490 values, Well 1: 1.6895
  OD490 values, Well 2: 1.7985
  OD490 values, Well 3: 1.8063
L929 cell line; 10μM, third assay
  OD490 values, Mean: 1.7158
  OD490 values, Well 1: 1.7235
  OD490 values, Well 2: 1.7253
  OD490 values, Well 3: 1.6985
L929 cell line; 25μM, first assay
  OD490 values, Mean: 1.2680
  OD490 values, Well 1: 1.2444
  OD490 values, Well 2: 1.2849
  OD490 values, Well 3: 1.2747
L929 cell line; 25μM, second assay
  OD490 values, Mean: 1.6159
  OD490 values, Well 1: 1.6525
  OD490 values, Well 2: 1.5652
  OD490 values, Well 3: 1.6301
L929 cell line; 25μM, third assay
  OD490 values, Mean: 1.4383
  OD490 values, Well 1: 1.5307
  OD490 values, Well 2: 1.3321
  OD490 values, Well 3: 1.4521
L929 cell line; 50μM, first assay
  OD490 values, Mean: 1.2064
  OD490 values, Well 1: 1.2251
  OD490 values, Well 2: 1.1315
  OD490 values, Well 3: 1.2627
L929 cell line; 50μM, second assay
  OD490 values, Mean: 1.4454
  OD490 values, Well 1: 1.4685
  OD490 values, Well 2: 1.3855
  OD490 values, Well 3: 1.4822
L929 cell line; 50μM, third assay
  OD490 values, Mean: 1.3084
  OD490 values, Well 1: 1.3124
  OD490 values, Well 2: 1.3165
  OD490 values, Well 3: 1.2962
L929 cell line; 100μM, first assay
  OD490 values, Mean: 1.1038
  OD490 values, Well 1: 1.1234
  OD490 values, Well 2: 1.0461
  OD490 values, Well 3: 1.1419
L929 cell line; 100μM, second assay
  OD490 values, Mean: 1.2865
  OD490 values, Well 1: 1.2022
  OD490 values, Well 2: 1.2699
  OD490 values, Well 3: 1.3874
L929 cell line; 100μM, third assay
  OD490 values, Mean: 1.3217
  OD490 values, Well 1: 1.4554
  OD490 values, Well 2: 1.2165
  OD490 values, Well 3: 1.2933
L929 cell line; MTS assay, 24 h exposure, ordinary fibroblast, not cancer cells
  IC50: 125 µM
